The values below come from US20050123583A1, “Medical use of reuterin” (priority 2000, published 2005).

The subject of data set [1] is Escherichia coli (ATCC 25922), Pseudomonas aeruginosa (ATCC 27853), Staphylococcus aureus (ATCC 25923), and Bacillus subtillis (ATCC 6633). Put plainly: Antimicrobial activity of reuterin, glutaraldehyde as control. It counts as cell-based. The text has this: Antimicrobial activity of reuterin was studied (J Biomed Mater Res 2002;61:360-369) and disclosed in the present invention, wherein glutaraldehyde is used as a control. The microorganisms tested in the study are Escherichia coli (ATCC 25922), Pseudomonas aeruginosa (ATCC 27853), Staphylococcus aureus (ATCC 25923), and Bacillus subtillis (ATCC 6633).

The subject of data set [2] is 3T3 fibroblasts (BALB/3T3 C1A31-1-1). Put plainly: Cytotoxicity, light microscopic observation of cultured cells. In kind it is cell-based. Particulars: 24 hours of culture. Here is the method:
(§1) The cytotoxicity of reuterin was also studied (J Biomed Mater Res 2002;61:360-369) and disclosed in the present invention, wherein glutaraldehyde is again used as a control. The cytotoxicity of the test reagents (glutaraldehyde vs. reuterin) was evaluated in vitro using a mouse-derived established cell line of 3T3 fibroblasts (BALB/3T3 C1A31-1-1). The assay (light microscopic observation and MTT assay) was used to measure the proportion of viable cells following a test reagent-treated culture.
In the assay, 3T3 fibroblasts were seeded in 24-well plates at 5×10^4 cells/well in 1 ml Dulbecco's modified eagle medium (DMEM, Gibco 430-2800EG, Grand Island, N.Y., USA) with 10% fetal calf serum (FCS, Hyclone Laboratories, Logan, Ut., USA). The cell culture was maintained in a humidified incubator at 37° C. with 10% CO2 in air. Cells in log phase of growth were then exposed to a new DMEM medium drugged with varying concentrations of glutaraldehyde or reuterin. After 24 hours of culture, the growth media in the wells were removed and the cells were photographed using light microscopy. Subsequently, the cells were washed with phosphate buffered saline (PBS) twice and surviving cell numbers were then determined indirectly by 3-(4,5-dimethylthiazol-yl)-2,5-diphenyltetrazolium bromide (MTT, Sigma Chemical Co., St. Louis, Mo., USA) dye reduction.

Data set [3] shares this test system. Briefly: Cytotoxicity, MTT assay. In kind it is cell-based, mouse. Particulars: 24 hours of culture. Here is the method: as §1
In the assay, 3T3 fibroblasts were seeded in 24-well plates at 5×10^4 cells/well in 1 ml Dulbecco's modified eagle medium (DMEM, Gibco 430-2800EG, Grand Island, N.Y., USA) with 10% fetal calf serum (FCS, Hyclone Laboratories, Logan, Ut., USA). […] Subsequently, the cells were washed with phosphate buffered saline (PBS) twice and surviving cell numbers were then determined indirectly by 3-(4,5-dimethylthiazol-yl)-2,5-diphenyltetrazolium bromide (MTT, Sigma Chemical Co., St. Louis, Mo., USA) dye reduction.
The MTT assay is based on the reduction of MTT, a yellow soluble dye by the mitochondrial succinate dehydrogenase to form an insoluble dark blue formazan product. […] Optical density readings were then performed using a multiwell scanning spectrophotometer (MRX Microplate Reader, Dynatech Laboratories Inc., Chantilly, Va., USA) at a wavelength of 570 nm. […]
Background: Tetrazolium dyes change colour on reduction, which living cells bring about.

Take `O=CCCCC=O` [glutaraldehyde, reference compound]: the “values for glutaraldehyde relative to those for reuterin” value in data set [1] (growth-preventing and lethal concentrations) was 2˜3 times. Also, the “state of cultured cells in photomicrographs” value in data set [2] (0.05 ppm) was “confluent”; in data set [2] (5 ppm), “all the cells cultured were found dead”. The “MTT50 concentration (concentration reducing optical density reading to half that of the control)” value in data set [3] is reported as “approximately 4 ppm”.

As for `O=CCCO` [reuterin, β-hydroxypropinoaldehyde], in data set [1] (all four tested microorganisms), the “concentration that can prevent the growth of the tested microorganisms” value is on record as 20 to 35 ppm and the “concentration that resulted in the death of the tested microorganisms” value lay within 40 to 50 ppm. Besides, the “sensitivity of tested microorganisms” value in data set [1] (gram-positive and gram-negative bacteria) is “sensitive”. In addition, the “state of cultured cells in photomicrographs” value in data set [2] (15 ppm) is given as “confluent”. In data set [3], the “MTT50 concentration (concentration reducing optical density reading to half that of the control)” value is “about 20 ppm”.
